Patent US20150011623A1, “Pharmaceutical Composition Containing as Active Ingredient Extract From Bark of Liriodendron Tulipifera” (CHO DANG PHARM CO., LTD., priority 2012, published 2015)
Marks after values point to notes of the source that are not given here.

Tested on: acetic acid inducing stomach ulcer model
Experiment: acetic acid inducing stomach ulcer model
Assay type: in vivo, male white rats
Details: for gastric lesion area: oral 30 mg/kg once a day for 10 days after operation; for lesion inhibition rate: oral 30 mg/kg once a day for 10 days, vs control group
Text: Efficacy of extract from bark of Liriodendron tulipifera obtained in Preparation Example 1 has been measured according to acetic acid inducing stomach ulcer model. Only solvent has been administered into control group, while extract from the bark of Liriodendron tulipifera has been administered into experimental group. Further, ranitidine and rebamipide used for drug for treating stomach ulcer have been also administered into experimental group. The experiment has been carried out according to the method disclosed in Okabe and Pfeifferi, Did. Dis. 17, pp. 619-628, 1972. 250 g weights of male white rats have been anesthetized with ether and the stomach has been exposed. 50 μl of 20% acetic acid has been injected into the subserosa in fundus of stomach using microliter syringe. Then, the abdomen of rat has been sutured. The drug has been orally administered into the rats at 10:00 am once a day for 10 days after operation. After 4 hour from final administration, animals have been sacrificed by ether. After removing the stomach of rat, the stomach has been spread out. The lesion area has been measured using the photo from digital camera. Computer program Image J 1.38 (NIH, Bethesda, Md.) has been applied for measuring gastric lesion area (mm^2) The lesion inhibition rate and 50% effective dose (ED50) have been calculated as the same manner of HCl-EtOH model.

Structure (SMILES)	gastric lesion area	lesion inhibition rate [%]
O=C(NC(Cc1cc(=O)[nH]c2ccccc12)C(=O)O)c1ccc(Cl)cc1 (stereo not shown) [rebamipide]	40.1 ± 7.43 mm^2	39.1
CNC(=C[N+](=O)[O-])NCCSCc1ccc(CN(C)C)o1 [ranitidine]	34.8 ± 4.83* mm^2	47.1
